# Experimental data published in US9206206B2, “Oxidized lipid compounds and uses thereof” (Vascular Biogenics Ltd., priority 2008, dated 2015).
# Assays:
# [1] = tested on: tyrosine phosphorylation in primary macrophages; assay: Tyrosine phosphorylation assay in primary macrophages (Western blot); assay type: cell-based, mouse; conditions: 10 minutes
# Experimental: Tyrosine Phosphorylation Assay: Tyrosine phosphorylation in macrophages or bone marrow-derived cells (BMDCs) of mice was assayed. Mouse primary macrophages were isolated from the peritoneum of 7-8 week old C57BL/6 female mice following thioglycollate stimulation. […] Mouse primary bone marrow-derived cells were isolated by flushing bone marrow out of the femur and tibia of female SJL mice using cold RPMI-1640. […] Cells were then washed, resuspended in the same buffer and depleted of B and T cells on a Midi-Macs separation unit through a LD or LS column (Miltenyi Biotech). […] The medium was replaced every other day. […] Proteins with phosphorylated tyrosine were then observed by Western blot, using a monoclonal anti-phosphotyrosine antibody. Western blotting for ERK1/2 or α-tubulin was performed as a control for protein loading.
# IL12/23 p40 = assay: In vitro IL12/23p40 production assay; assay type: cell-based, mouse; conditions: bone marrow-derived cells, compound 1, 2.5, 5, 10 or 20 μg/ml for 1 hour, then 10 μg/ml peptidoglycan 24 hours, ELISA
# Experimental: In Vitro IL12/23p40 Production Assay:
# Bone marrow derived cells (BMDCs) were obtained from the femur and tibia of female C57BL mice, cultured, and seeded at a concentration of 10^6 cells/ml 5-6 days post-culturing, as described hereinabove for the tyrosine phosphorylation assay.
# The tested compound was then added to the cells for 1 hour at a concentration of 1, 2.5, 5, 10 or 20 μg/ml. The cells were activated for IL12/23p40 production by incubation for 24 hours with 10 μg/ml peptidoglycan (PGN). Cytokine production from the supernatant was measured by ELISA. Activated cells without the tested compound were used as the control.
# C57BL/6 mice = assay: In vivo MOG-induced experimental autoimmune encephalomyelitis (EAE) assay; set-up: species or system mouse; conditions: 4 mg/kg orally, 5 consecutive days starting 5 days before immunization
# Experimental: In Vivo Myelin Oligodendrocyte Glycoprotein (MOG)-Induced Experimental Autoimmune Encephalomyelitis (EAE) Assay:
# C57BL/6 mice were orally administered with the indicated amount of the tested compound in a final volume of 200 μl for 5 consecutive days starting 5 days before immunization.
# For EAE induction, mice were immunized subcutaneously with an emulsion containing 1.5 mg/ml MOG peptide 35-55 ([…]) and 2.5 mg/ml CFA (complete Freund's adjuvant), 100 μl emulsion being injected into each flank. Pertussis toxin (500 ng in 500 μl PBS) was administered intraperitoneally immediately and 48 hours after the immunization.
# Onset of EAE was evaluated by a mean clinical score.
# [2] = tested on: mouse peritoneal macrophages; assay: In vitro toxicity assay; assay type: cell-based; conditions: mouse, 24 h
# Experimental: Thioglycollate-elicited mouse peritoneal macrophages were washed, counted and seeded (2×10^5 to 3×10^5 cells per well in 24-well plates) in triplicate wells in medium containing RPMI-1640, L-glutamine, 10% FBS and antibiotics (penicillin/streptomycin). After a recovery period of 24 hours, the tested compound (or controls) was added to the cell medium at doses of 2, 10, 20, 50, 100 or 150 μg/ml, keeping the added volume equal in all treatments by complementing the volume with solvent.
# Following addition of the compounds, the cells were incubated for an additional 24 hours, after which the cells were washed, fixed with a solution of 10% methanol/10% acetic acid and stained with crystal violet (0.4% in 20% ethanol). Cell numbers were measured by determining optical density at 595 nm. Cells incubated with vehicle (PBS with 1% ethanol) were used as a control, to which cell numbers in treated samples were normalized.
# Data are presented as mean±standard deviation. Statistical significance relative to vehicle-treated cells was calculated using a student's t-test, with p-values of less than 0.05 being considered as indicating statistical significance.
# IL12/23 p40 mRNA = assay: In vitro IL12/23 p40 mRNA expression assay; assay type: cell-based, mouse; conditions: CD11c+ dendritic cells, 20 μg/ml, 10 μg/ml peptidoglycan, 2-4 hours following administration
# Experimental: In Vitro IL12/23 p40 mRNA Expression Assay:
# Bone marrow-derived cell cultures were prepared as described hereinabove. On days 5-6 post culturing, the cell cultures were enriched for CD11c+ dendritic cells (>90%) with mouse CD11c microbeads over MS or LS columns (Miltenyi Biotech). CD11c+ dendritic cells were stimulated for 1, 2 and 3 hours with 10 μg/ml peptidoglycan alone or in the presence of 20 μg/ml of the tested compound added 1 hour before activation. RNA was extracted from cells using RNeasy mini kit (Qiagen, Valencia, Calif.). For cDNA preparation, 1 μg of RNA was combined with Oligo dT for 10 minutes at 70° C., 1st strand buffer. Dithiothreitol and dNTP and super-script reverse transcriptase (Invitrogen, Carlsbad, Calif.) were added for 50 minutes at 42° C. and the reaction was ended by incubation for an additional 15 minutes at 70° C. All real time PCR reactions were performed using LightCycler Taqman master (Roche Diagnostics, Mannheim, Germany) and run on the LightCycler machine (Roche). Ready sets of probe with primers were used for IL12/23 p40 and GAPDH assays (Applied Biosystems, assays #Mm01288992_m1 and Mm99999915_g1, respectively) with the latter served to normalize RNA levels. 20 μg/ml CI-201 and phosphatidylcholine (PC) were used as positive and negative controls respectively.
# DBA/1 male mice = assay: In vivo collagen-induced arthritis (CIA) assay; set-up: species or system mouse
# Experimental: In Vivo Collagen-Induced Arthritis (CIA) Assay:
# DBA/1 male mice were immunized to induce arthritis by a collagen injection containing complete Freund's adjuvant (CFA) in the base of the tail (day 0) and a booster shot in the flank (day 21). Mice were followed for arthritis development until day 36. Administration by gavage of the tested compound and control substances began on day 22 and was carried out on a daily basis (6 times per week).
# Onset of arthritis was evaluated by an arthritis clinical score.
compound,measurement,setting,value
"CCCCCCCCCCCCCCCCOCC(COP(=O)(O)OCCN)OCCCCC(=O)O (centres unmarked) [CI-202, 1-Hexadecyl-2-(4-carboxy)butyl-glycero-3-phosphoethanolamine]",phosphotyrosine levels,[1]; 10 μg/ml,induction of tyrosine phosphorylation
same,phosphotyrosine levels,[1]; 20 μg/ml,reduction in phosphotyrosine levels
same,production of IL12/23 p40,IL12/23 p40,inhibited production of IL12/23 p40 by bone marrow-derived cells in a dose-dependent manner
same,development of MOG-induced EAE (mean clinical score),C57BL/6 mice,delayed disease onset and reduced clinical manifestation of EAE
same,dose at which (significant) toxicity was detected,[2],above 50 μg/ml
same,IL12/23 p40 mRNA expression,IL12/23 p40 mRNA,inhibited IL12/23 p40 mRNA expression during the whole tested time period
same,decrease of peak arthritis clinical score relative to the control mice,DBA/1 male mice; 0.4 mg/kg by gavage daily from day 22,42%
same,arthritis severity (arthritis clinical score),"DBA/1 male mice; 0.4 mg/kg by gavage daily from day 22, followed until day 36",significantly decreased arthritis severity throughout the study period
